Test results published in patent US9409952B2, “Peptide-compound cyclization method” (Chugai Seiyaku Kabushiki Kaisha, priority 2011, dated 2016).
Like-named read-outs stand apart in the source and are kept apart here. Starred links: 1 amine or outer side, 2 acyl side, 3 side chain; linkers in the order of their positions; H or OH if unused. Positions of bridges follow the written chain, without caps; N, C: chain ends. Non-standard residues stand in square brackets, D forms with d. Residues, ends and D or L forms follow the SMILES beside them. *: point of attachment. NMeF = CN[C@@H](Cc1ccccc1)C(=O)O; NMeI = CC[C@H](C)[C@H](NC)C(=O)O; NMeβAla = CN(CCC(=O)[*:2])[*:1]; Aoc(2) = CCCCCC[C@H](N)C(=O)O; NMeL = CN[C@@H](CC(C)C)C(=O)O; NMeV = CN[C@H](C(=O)O)C(C)C; NMeS = CN[C@@H](CO)C(=O)O; NMeA = CN[C@@H](C)C(=O)O; Piperidide = C1CCN(*)CC1; dNMeA = CN[C@H](C)C(=O)O; β3hA = C[C@H](N)CC(=O)O; Abu = CC[C@H](N)C(=O)O; Sar = CNCC(=O)O; tBu = CC(C)(C)*

Key:
[1] = PAMPA (parallel artificial membrane permeability assay); format: in vitro ADME; conditions: PAMPA
In short: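 Artificial membrane was 10% (w/v) egg lecithin plus 0.5% (w/v) cholesterol in dodecane on a PVDF filter. A 10 mM DMSO stock was added at 0.5% (v/v) to donor buffer (50 mM MOPSO, pH 6.5, 5.0% glycocholic acid). After 18 h at 37 °C, LC/MS or LC/UV gave donor and acceptor levels for Pe.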

[2] = Metabolic stability in human hepatic microsome; format: in vitro ADME; conditions: microsomes
[3] = membrane permeation rate (Pe), 50 mM MOPSO buffer pH 6.5 with 5.0% glycocholic acid, 37° C., 18 hours, read-out: iPAMPA Pe
[4] = pH 7.4, human hepatic microsome, NADPH(+), read-out: CL NADPH(+)

Compound | Papp at 18 hours, 50 µM ([1]; pH 6.5) [×10⁻⁶ cm/s] | microsomal CLint at 1 uM ([2]; human, pH 7.4, CL NADPH(+)) [µL/min/mg] | Papp at 18 hours, 50 µM [1, 3] [×10⁻⁶ cm/s] | microsomal CLint at 1 uM [2, 4] [µL/min/mg]
CC[C@H](C)[C@@H]1NC(=O)[C@H](C)NC(=O)C[C@@H](C(=O)N2CCCCC2)NC(=O)[C@H](CC(C)C)NC(=O)[C@H](CC(C)C)NC(=O)[C@H](C(C)C)NC(=O)[C@H](C)N(C)C(=O)[C@H](Cc2ccccc2)NC(=O)CNC(=O)[C@H]([C@@H](C)O)NC(=O)[C@H](CC(C)C)N(C)C(=O)[C@@H]2CCCN2C1=O [DP-5] (AIP[NMeL]TGF[NMeA]VLLD-Piperidide; lactam N-12) | 13 | 68 |  | 
CC(C)C[C@H]1C(=O)NCC(=O)N[C@H](C(=O)N2CCCCC2)CC(=O)N[C@H](C(C)C)C(=O)N[C@@H]([C@@H](C)O)C(=O)N(C)[C@@H](C)C(=O)N(C)[C@@H](Cc2ccccc2)C(=O)N(C)[C@@H](Cc2ccccc2)C(=O)N[C@@H](COC(C)(C)C)C(=O)N1C [DP-176] ([dV]T[NMeA][NMeF][NMeF]S(tBu)[NMeL]GD-Piperidide; lactam N-9) |  |  | 25 | 47
CC[C@H](C)[C@@H]1NC(=O)[C@H](C)N(C)C(=O)[C@H](Cc2ccccc2)N(C)C(=O)[C@@H](C)N(C)C(=O)C[C@@H](C(=O)N(C)[C@@H](Cc2ccccc2)C(=O)N(C)[C@@H](Cc2ccccc2)C(=O)N[C@@H](C)C(=O)N2CCCCC2)NC(=O)[C@H](C)N(C)C(=O)[C@H]([C@@H](C)O)NC(=O)[C@H](C)N(C)C(=O)[C@H](CC(C)C)N(C)C(=O)[C@H](C)N(C)C1=O [DP-455] ([dNMeA][NMeF][NMeA]I[NMeA][NMeL][NMeA]T[NMeA]D[NMeF][NMeF]A-Piperidide; lactam N-10) |  |  | 15 | 17
CCCCCC[C@@H]1NC(=O)[C@H](CC(C)C)N(C)C(=O)C[C@H](C)NC(=O)[C@H](CC)NC(=O)[C@H](CO)N(C)C(=O)[C@H](CC(C)C)N(C)C(=O)[C@H](CC(C)C)N(C)C(=O)[C@H](CC(C)C)N(C)C(=O)[C@@H](C)NC(=O)[C@H](C)NC(=O)[C@H](CC(C)C)N(C)C1=O [DP-646] (cyclo(A[dA][NMeL][NMeL][NMeL][NMeS][Abu][β3hA][NMeL][Aoc(2)][NMeL])) |  |  | 29 | 139
CC(C)C[C@H]1C(=O)N[C@@H]([C@@H](C)O)C(=O)N(C)[C@@H](CC(C)C)C(=O)N(C)CC(=O)N(C)[C@@H](Cc2ccccc2)C(=O)N[C@@H](COC(C)(C)C)C(=O)N[C@H](C(=O)N2CCCCC2)CC(=O)N1C [DP-717] ([NMeL]T[NMeL][Sar][NMeF]S(tBu)D-Piperidide; lactam N-7) |  |  | 21 | 101
CC(C)C[C@@H]1NC(=O)[C@H]([C@@H](C)O)NC(=O)[C@H](CC(C)C)N(C)C(=O)[C@H](Cc2ccccc2)N(C)C(=O)[C@H](C)N(C)C(=O)C[C@@H](C(=O)N2CCCCC2)NC(=O)[C@H](COC(C)(C)C)NC(=O)[C@H](CC(C)C)N(C)C1=O [DP-696] ([NMeA][NMeF][NMeL]TL[NMeL]S(tBu)D-Piperidide; lactam N-8) |  |  | 37 | 194
CC(C)C[C@H]1C(=O)N[C@@H](C)C(=O)N(C)[C@@H](C)C(=O)N[C@@H](C)CC(=O)N(C)[C@@H](C)C(=O)N[C@@H]([C@@H](C)O)C(=O)N(C)CC(=O)N(C)[C@@H](Cc2ccccc2)C(=O)N(C)[C@@H](Cc2ccccc2)C(=O)N(C)[C@@H](C)C(=O)N2CCC[C@H]2C(=O)N1C [DP-765] (cyclo(A[NMeA][β3hA][NMeA]T[Sar][NMeF][NMeF][NMeA]P[NMeL])) | 3 | 13 |  | 
CC[C@H](C)[C@H](NC(=O)[C@@H](NC(=O)[C@H](Cc1ccccc1)NC(=O)[C@H](CC(C)C)N(C)C(=O)[C@@H]1CC(=O)N(C)CCC(=O)N(C)[C@@H](C)C(=O)N[C@@H](CC(C)C)C(=O)N[C@@H]([C@@H](C)O)C(=O)N(C)[C@@H](Cc2ccccc2)C(=O)N(C)[C@@H](CC(C)C)C(=O)N(C)[C@@H](Cc2ccccc2)C(=O)N1)C(C)C)C(=O)N1CCCCC1 [DP-930] ([NMeβAla][NMeA]LT[NMeF][NMeL][NMeF]D[NMeL]FVI-Piperidide; lactam N-8) |  |  | 0.46 | 168
CC[C@H](C)[C@@H]1NC(=O)[C@H](Cc2ccccc2)N(C)C(=O)[C@H](CC(C)C)N(C)C(=O)[C@H](Cc2ccccc2)NC(=O)[C@H](C)N(C)C(=O)[C@H]([C@@H](C)O)NC(=O)CCN(C)C(=O)C[C@@H](C(=O)N2CCCCC2)NC(=O)[C@H](CC(C)C)N(C)C(=O)[C@H](C(C)C)N(C)C1=O [DP-427] ([NMeβAla]T[NMeA]F[NMeL][NMeF]I[NMeV][NMeL]D-Piperidide; lactam N-10) |  |  | 37 | 141
CC[C@H](C)[C@H]1C(=O)N[C@H](C(=O)N2CCCCC2)CC(=O)N[C@H](C(C)C)C(=O)N(C)[C@@H](CC(C)C)C(=O)N(C)[C@@H](Cc2ccccc2)C(=O)N(C)[C@@H](C)C(=O)N[C@@H]([C@@H](C)O)C(=O)N(C)CC(=O)N(C)[C@@H](CC(C)C)C(=O)N[C@@H](COC(C)(C)C)C(=O)N1C [DP-257] ([dV][NMeL][NMeF][NMeA]T[Sar][NMeL]S(tBu)[NMeI]D-Piperidide; lactam N-10) |  |  | 33 | 46
